Experimental data reported in patent US9796733B2, “Imidazo-pyrazine derivatives useful as soluble guanylate cyclase activators” (Merck Sharp & Dohme Corp., priority 2014, dated 2017).

Target: T1, sGC α1/β1 heterodimer (Homo sapiens, UniProt Q02108+Q02153)
T1 construct: expressed in transfected cells; host or cells: CHO-K1 (clone #7, CHO-K1/sGC)
T1 sequence (Q02108 1-690): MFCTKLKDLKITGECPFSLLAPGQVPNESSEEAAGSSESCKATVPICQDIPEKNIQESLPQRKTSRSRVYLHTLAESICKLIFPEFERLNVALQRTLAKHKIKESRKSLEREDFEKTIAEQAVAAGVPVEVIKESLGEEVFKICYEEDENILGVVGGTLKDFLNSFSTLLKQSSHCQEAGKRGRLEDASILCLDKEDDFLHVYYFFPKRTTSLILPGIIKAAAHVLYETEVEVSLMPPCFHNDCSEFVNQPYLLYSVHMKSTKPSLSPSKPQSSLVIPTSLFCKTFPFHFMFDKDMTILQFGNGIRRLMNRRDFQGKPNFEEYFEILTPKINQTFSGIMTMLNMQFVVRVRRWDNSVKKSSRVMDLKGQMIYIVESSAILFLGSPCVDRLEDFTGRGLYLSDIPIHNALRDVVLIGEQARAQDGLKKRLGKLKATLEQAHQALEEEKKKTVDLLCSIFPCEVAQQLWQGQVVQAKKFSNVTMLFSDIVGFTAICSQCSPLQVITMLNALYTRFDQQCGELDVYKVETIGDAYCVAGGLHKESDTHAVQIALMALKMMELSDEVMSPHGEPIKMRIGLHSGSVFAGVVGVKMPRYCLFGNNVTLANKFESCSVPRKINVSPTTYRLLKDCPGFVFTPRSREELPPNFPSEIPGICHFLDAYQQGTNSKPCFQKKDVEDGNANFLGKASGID
T1 sequence (Q02153 1-619): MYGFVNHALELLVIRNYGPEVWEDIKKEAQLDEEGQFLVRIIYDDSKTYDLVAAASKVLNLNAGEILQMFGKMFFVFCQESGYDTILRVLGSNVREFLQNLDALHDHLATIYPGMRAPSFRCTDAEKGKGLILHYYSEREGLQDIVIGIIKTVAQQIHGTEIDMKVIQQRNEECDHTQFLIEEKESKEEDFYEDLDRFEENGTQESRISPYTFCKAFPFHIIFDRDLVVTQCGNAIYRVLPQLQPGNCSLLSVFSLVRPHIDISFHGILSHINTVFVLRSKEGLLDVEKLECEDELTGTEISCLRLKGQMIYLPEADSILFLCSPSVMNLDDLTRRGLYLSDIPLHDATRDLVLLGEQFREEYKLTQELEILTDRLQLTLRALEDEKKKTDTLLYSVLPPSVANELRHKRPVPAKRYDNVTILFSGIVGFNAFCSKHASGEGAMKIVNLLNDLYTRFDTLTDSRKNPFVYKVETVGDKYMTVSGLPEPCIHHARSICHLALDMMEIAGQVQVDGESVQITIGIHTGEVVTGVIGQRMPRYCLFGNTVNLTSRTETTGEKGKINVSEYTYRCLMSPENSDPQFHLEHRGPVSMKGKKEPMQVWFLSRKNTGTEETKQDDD
Assay: Cell-based sGC functional assay (CASA assay): cGMP generation in CHO-K1/sGC cells, HTRF detection
Conditions: for Emax: CHO-K1, percent activation relative to standard Compound A in CHO-K1/sGC cells, read-out: % Act.; for EC50: inflection point (IP) of cGMP generation in CHO-K1/sGC cells, 4P fit, activity expressed as percentage of Compound A
Outline: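 Stable CHO-K1/sGC cells in EBSS buffer with 5 mM MgCl2, 0.05% BSA and 0.5 mM IBMX were incubated with compound (2.5% DMSO final) ±1 μM DETA-NO for 1 hr at 37° C. cGMP was measured by HTRF. Activation is expressed as % of reference HDA Compound A maximum, with IP and max fold induction from a 4P fit.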

Emax [%] | EC50 [nM] | Compound
112 | 36 | CCC1(CC)C(=O)Nc2nc(-c3cn4ccnc4c(Cc4ccccc4)n3)nc(N)c21 [Example 79, 4-amino-2-(8-benzylimidazo[1,2-a]pyrazin-6-yl)-5,5-diethyl-5H-pyrrolo[2,3-d]pyrimidin-6(7H)-one]
125 | 66 | CC(C)C1(C)C(=O)Nc2nc(-c3cn4ccnc4c(Cc4ccccc4)n3)nc(N)c21 (stereo not drawn) [Example 80A, 4-amino-2-(8-benzylimidazo[1,2-a]pyrazin-6-yl)-5-isopropyl-5-methyl-5H-pyrrolo[2,3-d]pyrimidin-6(7H)-one]
120 | 90 | CC1(C2CC2)C(=O)Nc2nc(-c3cn4ccnc4c(Cc4ccccc4)n3)nc(N)c21 (stereo not drawn) [Example 82A, 4-amino-2-(8-benzylimidazo[1,2-a]pyrazin-6-yl)-5-cyclopropyl-5-methyl-5H-pyrrolo[2,3-d]pyrimidin-6(7H)-one]
90 | 58 | CCC1(C)C(=O)Nc2nc(-c3cn4ccnc4c(Cc4ccccc4)n3)nc(N)c21 (stereo not drawn) [Example 84A, 4-amino-2-(8-benzylimidazo[1,2-a]pyrazin-6-yl)-5-ethyl-5-methyl-5H-pyrrolo[2,3-d]pyrimidin-6(7H)-one]

Further lines, the compound ahead of its results:

Compound | Emax [%] | EC50 [nM]
CC1(C)C(=O)Nc2nc(-c3cn4ccnc4c(Cc4ccc(F)cc4)n3)nc(N)c21 [Example 72, 4-amino-2-(8-(4-fluorobenzyl)imidazo[1,2-a]pyrazin-6-yl)-5,5-dimethyl-5H-pyrrolo[2,3-d]pyrimidin-6(7H)-one] | 126 | 342
CC1(C)C(=O)Nc2nc(-c3cn4ccnc4c(Cc4ccc(F)c(F)c4)n3)nc(N)c21 [Example 73, 4-amino-2-(8-(3,4-difluorobenzyl)imidazo[1,2-a]pyrazin-6-yl)-5,5-dimethyl-5H-pyrrolo[2,3-d]pyrimidin-6(7H)-one] | 111 | 44
CC1(C)C(=O)Nc2nc(-c3cn4ccnc4c(Cc4cccc(Cl)c4)n3)nc(N)c21 [Example 74, 4-amino-2-(8-(3-chlorobenzyl)imidazo[1,2-a]pyrazin-6-yl)-5,5-dimethyl-5H-pyrrolo[2,3-d]pyrimidin-6(7H)-one] | 94 | 138
CC1(C)C(=O)Nc2nc(-c3cn4cc(C(F)(F)F)nc4c(Cc4cccc(F)c4)n3)nc(N)c21 [Example 75, 4-amino-2-(8-(3-fluorobenzyl)-2-(trifluoromethyl)imidazo[1,2-a]pyrazin-6-yl)-5,5-dimethyl-5H-pyrrolo[2,3-d]pyrimidin-6(7H)-one] | 99 | 862
CC1(C)C(=O)Nc2nc(-c3cn4ccnc4c(CCC(F)(F)C(F)(F)F)n3)nc(N)c21 [Example 87, 4-amino-5,5-dimethyl-2-(8-(3,3,4,4,4-pentafluorobutyl)imidazo [1,2-a]pyrazin-6-yl)-5H-pyrrolo[2,3-d]pyrimidin-6(7H)-one] | 54 | 399
Cn1cc(C2(C)C(=O)Nc3nc(-c4cn5ccnc5c(Cc5ccc(F)cc5)n4)nc(N)c32)cn1 (stereo not drawn) [Example 88B, 4-amino-2-(8-(4-fluorobenzyl)imidazo[1,2-a]pyrazin-6-yl)-5-methyl-5-(1-methyl-1H-pyrazol-4-yl)-5H-pyrrolo[2,3-d]pyrimidin-6(7H)-one] | 79 | 224
CC1(c2ccc(F)cc2)C(=O)Nc2nc(-c3cn4ccnc4c(Cc4ccccc4F)n3)nc(N)c21 (stereo not drawn) [Example 89A, 4-amino-2-(8-(2-fluorobenzyl)imidazo[1,2-a]pyrazin-6-yl)-5-(4-fluorophenyl)-5-methyl-5H-pyrrolo[2,3-d]pyrimidin-6(7H)-one] | 141 | 4
CC1(c2ccc(F)cc2)C(=O)Nc2nc(-c3cn4ccnc4c(Cc4ccc(F)cc4)n3)nc(N)c21 (stereo not drawn) [Example 92A, 4-amino-2-(8-(4-fluorobenzyl)imidazo[1,2-a]pyrazin-6-yl)-5-(4-fluorophenyl)-5-methyl-5H-pyrrolo[2,3-d]pyrimidin-6(7H)-one] | 97 | 9
